{"source": "patent US11241427B2", "about": "“Small molecule modulators of NR2F6 activity” (Regen Biopharma, Inc., priority 2015, dated 2022)", "target": "T1, NR2F6 (ligand binding domain, amino acids 163-404) (Homo sapiens, UniProt P10588)", "T1 construct": "HIS (N, cleaved yes); FLAG (N, cleaved yes); TEV site (N, cleaved yes); made in house; host or cells: E. coli BL21 (DE3)", "T1 sequence (P10588 163-404)": "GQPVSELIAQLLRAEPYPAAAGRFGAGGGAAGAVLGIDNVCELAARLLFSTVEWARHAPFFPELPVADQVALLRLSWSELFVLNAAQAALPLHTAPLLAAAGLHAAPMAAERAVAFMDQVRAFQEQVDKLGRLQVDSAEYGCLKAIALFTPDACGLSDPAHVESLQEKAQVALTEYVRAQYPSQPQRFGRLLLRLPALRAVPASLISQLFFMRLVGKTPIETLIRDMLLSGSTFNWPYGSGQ", "assay": "Thermoshift analysis (TSA) of compound binding to NR2F6", "details": "for Tm: NR2F6 alone Tm 48 °C", "description": "The binding interaction between target protein NR2F6 and 139 compounds selected from an in silico screen was assessed using thermoshift analysis (TSA). Thermoshift is a physical technique used to determine the melting temperature of a protein. The interaction of the ligand to the folded state of the protein shifts the melting temperature. In the experimental system used, the NR2F6 protein is mixed with the ligand and the fluorescent dye SYPRO Orange®. The fluorescence is monitored over temperature gradient between 20 and 95° C. with 0.5° C. increment. The dye binds to the hydrophobic regions of molten globules and denatured proteins resulting in an increase of fluorescence. A plot of the fluorescence is obtained and used to determine the melting temperature in absence and presence of ligand.\nThe ligand binding domain of NR2F6 (amino acids 163-404) was cloned for soluble expression in E. coli with an N-terminal HIS-FLAG-TEV-tag. Expression was performed in BL21 (DE3) cells. In brief, a 12L E. coli culture was induced with IPTG in logarithmic phase and further incubated over night at 18° C. Cells were harvested via centrifugation, washed with buffer and stored at […] until purification.\nThe purification procedure performed consists of HIS affinity chromatography, tag cleavage, negative affinity chromatography, size exclusion chromatography and ion exchange chromatography.\nThermoshift analysis was performed on 139 Compounds that were stored as powder in DMSO stocks. A reaction volume of 25 μl was used, with reaction temperatures being increased in 0.5 increments from 20-95° C. in 96 well, PCR plates (Hard-Shell®, HSP-9655). The control was NR2F6 protein alone in 1% DMSO. For performing the reaction, a reaction buffer comprising of the following was utilized: 20 mM HEPES pH 6.85, 150 mM NaCl, 10% Glycerin and 0.5 mM TCEP.\nThe following pipetting sequence was used: 1) Add appropriate volume of target enzyme in reaction buffer; 2) Add appropriate volume of dye SYPRO Orange® in reaction buffer; 3) Add inhibitor in 100% DMSO (1% final DMSO conc); 4) Measure fluorescence\nFluorescence was quantified using a CFX Connect™ Real-Time PCR Detection System (BioRad)\nAn increase in melting temperature is indicative for compound binding.", "key": {"[1]": {"details": "Table 1.1, 100 μM compound, shift versus NR2F6 alone (Tm 48 °C), read-out: delta Tm"}, "[2]": {"details": "Table 1.1, 100 μM compound, 0.5 mg/ml NR2F6, 1% DMSO"}, "[3]": {"details": "Table 1.1, 100 μM compound, shift versus NR2F6 alone (Tm 48 °C)"}}, "note": "Read-outs that look alike come from different tables or passages of the source."}
{"molecule": "O=Cc1c2c(cc3c1=Nc1ccccc1-3)=Nc1ccccc1-2", "note": "[Cpd 17, 6-Formylindolo [3,2-B] carbazole]", "values": [{"measurement": "Tm", "setting": "Table 1.2, 100 μM compound", "value": 50, "unit": "°C"}]}
{"molecule": "CC1=C(/C=C/C(C)=C/C=C/C(C)=C/C(=O)Nc2ccc(O)cc2)C(C)(C)CCC1", "note": "[Cpd 43, 4-Hydroxyphenylretinamide]", "values": [{"measurement": "Tm", "setting": "Table 1.2, 100 μM compound", "value": 50, "unit": "°C"}]}
{"molecule": "CC(C)(Oc1ccc(CCNC(=O)c2ccc(Cl)cc2)cc1)C(=O)O", "note": "[Cpd 61, Bezafibrate]", "values": [{"measurement": "ΔTm at 100 µM", "setting": "[1]", "value": 0, "unit": "°C"}]}
{"molecule": "O=C(Nc1ccccc1)c1cc([N+](=O)[O-])ccc1Cl", "note": "[Cpd 62, GW 9662]", "values": [{"measurement": "Tm", "setting": "[2]", "value": 48, "unit": "°C"}, {"measurement": "delta Tm", "setting": "[3]", "value": 0, "unit": "°C"}]}
{"molecule": "C[C@H](CCC(=O)NCC(=O)O)[C@H]1CC[C@H]2[C@@H]3[C@H](O)C[C@@H]4C[C@H](O)CC[C@]4(C)[C@H]3C[C@H](O)[C@]12C", "note": "[Cpd 63, Glycochalic acid]", "values": [{"measurement": "Tm", "setting": "[2]", "value": 48, "unit": "°C"}, {"measurement": "delta Tm", "setting": "[3]", "value": 0, "unit": "°C"}]}
{"molecule": "C/C=C1\\C(=O)C[C@H]2[C@@H]3CCC4=CC(=O)CC[C@]4(C)[C@H]3CC[C@]12C", "note": "[Cpd 64, Z-Guggulsterone]", "values": [{"measurement": "Tm", "setting": "[2]", "value": 46, "unit": "°C"}, {"measurement": "delta Tm", "setting": "[3]", "value": "−2", "unit": "°C"}]}
{"molecule": "C[C@]12CC[C@@H]3c4ccc(O)cc4CC[C@H]3[C@@H]1CC[C@@H]2O", "note": "[Cpd 65, 17b-Estradiol]", "values": [{"measurement": "Tm", "setting": "[2]", "value": 47, "unit": "°C"}, {"measurement": "delta Tm", "setting": "[3]", "value": "−1", "unit": "°C"}]}
{"molecule": "Cc1cccc(Nc2cc(Cl)nc(SCC(=O)O)n2)c1C", "note": "[Cpd 66, WY-14643]", "values": [{"measurement": "Tm", "setting": "[2]", "value": 47.5, "unit": "°C"}, {"measurement": "ΔTm at 100 µM", "setting": "[1]", "value": -0.5, "unit": "°C"}]}
{"molecule": "CCCc1c(OCCCCc2nnn[nH]2)ccc(C(C)=O)c1O", "note": "[Cpd 67, LY 171883]", "values": [{"measurement": "Tm", "setting": "[2]", "value": 46.5, "unit": "°C"}, {"measurement": "ΔTm at 100 µM", "setting": "[1]", "value": -1.5, "unit": "°C"}]}
{"molecule": "Cc1ccc(C)c(OCCCC(C)(C)C(=O)O)c1", "note": "[Cpd 68, Gemfibrozil]", "values": [{"measurement": "Tm", "setting": "[2]", "value": 47.5, "unit": "°C"}, {"measurement": "ΔTm at 100 µM", "setting": "[1]", "value": -0.5, "unit": "°C"}]}
{"molecule": "CC(CCC(=O)NCC(=O)O)C1CCC2C3CCC4CC(O)CCC4(C)C3CC(O)C12C", "note": "(stereo not shown) [Cpd 69, Glycodeoxycholic acid]", "values": [{"measurement": "Tm", "setting": "[2]", "value": 46.5, "unit": "°C"}, {"measurement": "ΔTm at 100 µM", "setting": "[1]", "value": -1.5, "unit": "°C"}]}
{"molecule": "Clc1cnc(Oc2ccc(Oc3ncc(Cl)cc3Cl)cc2)c(Cl)c1", "note": "[Cpd 70, TCPOBOP]", "values": [{"measurement": "Tm", "setting": "[2]", "value": 48, "unit": "°C"}, {"measurement": "delta Tm", "setting": "[3]", "value": 0, "unit": "°C"}]}
{"molecule": "CC(=O)[C@H]1CC[C@H]2[C@@H]3CC=C4C[C@@H](O)CC[C@]4(C)[C@H]3CC[C@]12C", "note": "[Cpd 71, Pregnenoione]", "values": [{"measurement": "Tm", "setting": "[2]", "value": 48, "unit": "°C"}, {"measurement": "delta Tm", "setting": "[3]", "value": 0, "unit": "°C"}]}
{"molecule": "CC1(COc2ccc(CC3SC(=O)NC3=O)cc2)CCCCC1", "note": "(stereo not shown) [Cpd 72, Ciglitazone]", "values": [{"measurement": "ΔTm at 100 µM", "setting": "[1]", "value": -0.5, "unit": "°C"}]}
{"molecule": "CCCCC/C=C/C=C1/C(=O)C=C[C@@H]1C/C=C\\CCCC(=O)O", "note": "[Cpd 73, 15-Deoxy-D12,14-prostaglandin J2]", "values": [{"measurement": "Tm", "setting": "[2]", "value": 48, "unit": "°C"}, {"measurement": "delta Tm", "setting": "[3]", "value": 0, "unit": "°C"}]}
{"molecule": "CC(C)(Sc1ccc(CCN(CCCCC2CCCCC2)C(=O)NC2CCCCC2)cc1)C(=O)O", "note": "[Cpd 74, GW 7647]", "values": [{"measurement": "Tm", "setting": "[2]", "value": 45.5, "unit": "°C"}, {"measurement": "ΔTm at 100 µM", "setting": "[1]", "value": -2.5, "unit": "°C"}]}
{"molecule": "C[C@H](CCC(=O)NCCS(=O)(=O)O)[C@H]1CC[C@H]2[C@@H]3[C@H](O)C[C@@H]4C[C@H](O)CC[C@]4(C)[C@H]3C[C@H](O)[C@]12C", "note": "[Cpd 75, Taurocholic acid]", "values": [{"measurement": "ΔTm at 100 µM", "value": -0.5, "unit": "°C"}, {"measurement": "Tm", "setting": "[2]", "value": 47.5, "unit": "°C"}]}
{"molecule": "CCCCCCCC/C=C\\CCCCCCCC(=O)NCCO", "note": "[Cpd 76, N-Oleoylethanolamide]", "values": [{"measurement": "Tm", "setting": "[2]", "value": 48.5, "unit": "°C"}, {"measurement": "delta Tm", "setting": "[3]", "value": 0.5, "unit": "°C"}]}
{"molecule": "C[C@]12CCC(=O)C=C1CC[C@@H]1[C@@H]2CC[C@]2(C)C(=O)CC[C@@H]12", "note": "[Cpd 77, Androstenedione]", "values": [{"measurement": "ΔTm at 100 µM", "value": -1, "unit": "°C"}, {"measurement": "Tm", "setting": "[2]", "value": 47, "unit": "°C"}]}
{"molecule": "Cc1c(C)c2c(c(C)c1O)CCC(C)(COc1ccc(CC3SC(=O)NC3=O)cc1)O2", "note": "(stereo not shown) [Cpd 79, Troglitazone]", "values": [{"measurement": "ΔTm at 100 µM", "setting": "[1]", "value": 0, "unit": "°C"}]}
{"molecule": "N[C@@H](Cc1cc(I)c(Oc2ccc(O)cc2)c(I)c1)C(=O)O", "note": "[Cpd 80, 3,5-Diiodo-L-thyroine]", "values": [{"measurement": "Tm", "setting": "[2]", "value": 48.5, "unit": "°C"}, {"measurement": "delta Tm", "setting": "[3]", "value": 0.5, "unit": "°C"}]}
{"molecule": "C[C@H](CCC(=O)NCCS(=O)(=O)O)[C@H]1CC[C@H]2[C@@H]3CC[C@@H]4C[C@H](O)CC[C@]4(C)[C@H]3C[C@H](O)[C@]12C", "note": "[Cpd 81, Taurodeoxycholic acid]", "values": [{"measurement": "Tm", "setting": "[2]", "value": 47.5, "unit": "°C"}, {"measurement": "ΔTm at 100 µM", "setting": "[1]", "value": -0.5, "unit": "°C"}]}
{"molecule": "CC(C)c1onc(-c2c(Cl)cccc2Cl)c1COc1ccc(/C=C/c2cccc(C(=O)O)c2)c(Cl)c1", "note": "[Cpd 82, GW4064]", "values": [{"measurement": "Tm", "setting": "[2]", "value": 35, "unit": "°C"}, {"measurement": "delta Tm", "setting": "[3]", "value": "−13", "unit": "°C"}]}
{"molecule": "C=C1/C(=C\\C=C2/CCC[C@]3(C)[C@@H]([C@H](C)CCCC(C)(C)O)CC[C@@H]23)C[C@@H](O)C[C@@H]1O", "note": "[Cpd 83, 1a,25-Dihydroxyvitamin D3]", "values": [{"measurement": "Tm", "setting": "[2]", "value": 46.5, "unit": "°C"}, {"measurement": "delta Tm", "setting": "[3]", "value": "−1.5", "unit": "°C"}]}
